The values that follow come from patent US11389445B2, “Pentafluorosulfanyl-substituted amide derivatives, preparation methods thereof and medical uses thereof” (Beijing Innocare Pharma Tech Co., Ltd., priority 2018, dated 2022).

The term IC50 denotes the concentration that gives 50% inhibition. A higher IC50 goes with weaker potency.

Assay [1] deals with plasma IDO1 (Mus musculus (Mouse), UniProt P28776). The settings on record: single dose, nude mice; cited from earlier work.
Assay [2] concerns CT26 tumors. The settings on record: repeated doses; cited from earlier work.
The target in assay [3] is indoleamine 2,3-dioxygenase (IDO) in Hela cells induced by IFN-γ (Homo sapiens (Human), UniProt P14902). Description: IDO Cellular Activity Inhibition Assay (Ehrlich method). In kind it is cell-based. The settings on record: 24 hours, OD490. How it is done: IDO Cellular Activity Inhibition Assay
The effect of the compounds of the present invention on the activity of indoleamine 2,3-dioxygenase (IDO) in Hela cells induced by IFN-γ was evaluated by the Ehrlich method.
The experimental principle is summarized as follows: IDO expression is low in Hela cells under no induction, but a certain concentration of IFN-γ can induces Hela cells to express IDO which catalyzes the conversion of tryptophan to N-formyl kynurenine, which in turn is hydrolyzed by trichloroacetic acid to give kynurenine. Kynurenine then reacts with the Ehrlich reagent to give a color enabling detection of the IDO activity. The absorbance at 490 nm (OD490) is directly proportional to the IDO activity.
The test compound was dissolved in DMSO (Sigma, Cat. No. D5879) and diluted to 5 mM, then serially diluted 3-fold with DMSO to a minimum concentration of 2.29 μM, and each concentration point was further diluted 50-fold with FBS-free DMEM medium (ThermoFisher, Cat. No. 11995073). If a compound's IC50 value was very low, the initial concentration of the compound was lowered.
Hela cells (ATCC, Cat. No. CCL-2) were cultured in DMEM complete medium containing 10% FBS (GBICO, Cat. No. 10099-141) and 100 U/mL streptomycin mixture (ThermoFisher, Cat. No. 15140122). When covering the culture vessel 80-90%, the cells were digested with 0.25% trypsin (containing EDTA) (ThermoFisher, Cat. No. 25200056) and planted in 96-well plates (Corning, Cat. No. 3599) by 20000 cells per well (80 μL of DMEM medium). The plates were then incubated in a 37° C., 5% CO2 incubator overnight (18-20 hours).
After overnight, 10 μL of DMEM-diluted compound and 10 μL of 500 ng/mL of IFN-γ were added to each well, and gently mixed and the 96-well plates were placed in a 37° C., 5% CO2 incubator for further culturing. After 24 hours, they were removed and centrifuged at room temperature under 2000×g for 5 min, and then the supernatants were transferred to reaction plates (Sigma, Cat. No. CLS3695). One-twentieth of trichloroacetic acid (Sigma, Cat. No. T9159) was added and incubated at 60° C. After 30 min, the reaction plates were centrifuged at room temperature under 2000×g for 5 min. The supernatants were transferred to clean reaction plates, an equal volume of the Ehrlich reagent was added, mixed, and incubated at room temperature. After 15 min, OD490 of each well was measured.
In this experiment, OD490 without IFN-γ but with DMEM medium replacement was referred as OD490100% inhibition. OD490 with IFN-γ and 0.2% DMSO was referred as OD4900% inhibition. The percentage of inhibition on the IDO1 activity in Hela cells by a compound was calculated using the following formula: Inhibition %=100−100*(OD490compound−OD490100% inhibition)/(OD4900% inhibition−OD490100% inhibition)
Where Y is the percentage of inhibition, Bottom is the bottom platform value of the S-curve, Top is the top platform value of the S-curve, X is the logarithm of the concentration of the test compound, and slope factor is the slope coefficient of the curve.

indoleamine 2,3-dioxygenase (IDO) in Hela cells induced by IFN-γ, sequence (P14902 whole entry): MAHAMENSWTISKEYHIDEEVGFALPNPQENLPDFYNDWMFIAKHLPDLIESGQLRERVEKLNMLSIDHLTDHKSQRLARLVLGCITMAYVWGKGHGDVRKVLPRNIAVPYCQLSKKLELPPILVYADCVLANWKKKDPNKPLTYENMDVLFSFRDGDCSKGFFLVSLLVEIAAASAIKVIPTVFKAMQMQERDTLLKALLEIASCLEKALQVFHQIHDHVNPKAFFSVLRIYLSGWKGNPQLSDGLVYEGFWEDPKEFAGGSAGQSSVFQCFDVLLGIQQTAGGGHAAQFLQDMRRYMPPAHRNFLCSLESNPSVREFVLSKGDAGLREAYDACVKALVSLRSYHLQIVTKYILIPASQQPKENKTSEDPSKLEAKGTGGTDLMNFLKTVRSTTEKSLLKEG
plasma IDO1, sequence (P28776 whole entry): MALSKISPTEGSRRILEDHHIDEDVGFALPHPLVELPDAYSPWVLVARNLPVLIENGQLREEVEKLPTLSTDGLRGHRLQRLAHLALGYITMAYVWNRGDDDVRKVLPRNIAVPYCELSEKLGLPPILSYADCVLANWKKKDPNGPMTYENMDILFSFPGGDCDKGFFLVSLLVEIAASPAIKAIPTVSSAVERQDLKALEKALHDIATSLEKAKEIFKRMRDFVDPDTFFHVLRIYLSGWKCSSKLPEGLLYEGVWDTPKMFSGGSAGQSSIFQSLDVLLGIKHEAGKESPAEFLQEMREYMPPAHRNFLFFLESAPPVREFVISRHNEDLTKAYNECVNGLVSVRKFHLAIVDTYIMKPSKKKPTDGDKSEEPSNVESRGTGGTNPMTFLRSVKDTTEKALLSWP

For `NS(=O)(=O)NCCNc1nonc1C(=NO)Nc1ccc(F)c(Br)c1` [INCB-024360], the “inhibition of the activity of plasma IDO1” value in assay [1] is reported as “effectively inhibit the activity of plasma IDO1 in nude mice at the same level as that in IDO-deficient mice”. Besides, the “expansion of CT26 tumors” value in assay [2] was “prevented the expansion of CT26 tumors”.

`O=C(CC1(O)CCC(c2ccnc3ccc(F)cc23)CC1)Nc1ccc(S(F)(F)(F)(F)F)cc1` (stereo not drawn) [Compound 5, 2-(4-(6-fluoroquinolin-4-yl)-1-hydroxycyclohexyl)-N-(4-(pentafluoro-λ^6-sulfanyl)phenyl)acetamide] yielded an IC50 in assay [3] below 50 nM.

On to `C[C@@H](C(=O)Nc1ccc(S(F)(F)(F)(F)F)cc1)C1CCC(c2ccnc3ccnn23)CC1` (stereo partly drawn) [Compound 4, (R)-N-(4-(pentafluoro-λ^6-sulfanyl)phenyl)-2-(4-(pyrazolo[1,5-a]pyrimidin-7-yl)cyclohexyl)propanamide], for which the half-maximal inhibitory concentration (IC50) in assay [3] lay within 50 to 200 nM.

With `Cc1cc([C@H]2CC[C@@H]([C@@H](C)C(=O)Nc3ccc(S(F)(F)(F)(F)F)cc3)CC2)ccn1` [Compound 3, (R)-2-((1s,4S)-4-(2-methylpyridin-4-yl)cyclohexyl)-N-(4-(pentafluoro-λ^6-sulfanyl)phenyl)propanamide], in assay [3], the half-inhibitory concentration (IC50) is below 50 nM.

`C[C@@H](C(=O)Nc1cccc(S(F)(F)(F)(F)F)c1)[C@H]1CC[C@@H](c2ccnc3ccc(F)cc32)CC1` [Compound 8, (R)-2-((1s,4S)-4-(6-fluoroquinolin-4-yl)cyclohexyl)-N-(3-(pentafluoro-λ^6-sulfanyl)phenyl)propanamide]: the IC50 in assay [3] was in the range of 200 to 1000 nM.

For `C[C@@H](C(=O)Nc1ccc(S(F)(F)(F)(F)F)cc1)[C@H]1CC[C@@H](c2ccnc3ccc(F)cc32)CC1` [Compound 1, (R)-2-((1s,4S)-4-(6-fluoroquinolin-4-yl)cyclohexyl)-N-(4-(pentafluoro-λ^6-sulfanyl)phenyl)propanamide], the IC50 in assay [3] is below 50 nM.

Compound `C[C@@H](C(=O)Nc1ccc(S(F)(F)(F)(F)F)cc1)[C@H]1CC[C@H](c2ccnc3ccc(F)cc32)CC1` [Compound 2, (R)-2-((1r,4R)-4-(6-fluoroquinolin-4-yl)cyclohexyl)-N-(4-(pentafluoro-λ^6-sulfanyl)phenyl)propanamide] gave a concentration for half-maximal inhibition (IC50) in assay [3] of 200 to 1000 nM.

`CC(NC(=O)c1ccc(S(F)(F)(F)(F)F)cc1)[C@H]1CC[C@@H](c2ccnc3ccc(F)cc32)CC1` (stereo partly drawn) [Compound 9, N-(1-((1s,4s)-4-(6-fluoroquinolin-4-yl)cyclohexyl)ethyl)-4-(pentafluoro-λ^6-sulfanyl)benzamide] displayed an IC50 in assay [3] below 50 nM.
